Experimental data from patent US6093838A, “Amines substituted with a dihydro-benzofuranyl or with a dihydro-isobenzofuranyl group, an aryl or heteroaryl group and an alkyl group, having retinoid-like biological activity” (Allergan Sales, Inc., priority 1999, dated 2000).
Where two headings read alike, the source gives them in different places.

Experiments:
[1] = molecular target: RXRγ; test: ligand binding assay, RXRγ; conditions: read-out: RXR Bind Ki γ
From the text: (§1) Other assays described below, measure the ability of the compounds of the present invention to bind to, and/or activate various retinoid receptor subtypes. When in these assays a compound binds to a given receptor subtype and activates the transcription of a reporter gene through that subtype, then the compound is considered an agonist of that receptor subtype. […] In the below described assays the ability of the compounds to bind to RARα, RARβ, RARγ, RXRα, RXRβ and RXRγ receptors, and the ability or inability of the compounds to activate transcription of a reporter gene through these receptor subtypes can be tested. […] However, some of the compounds of the invention may behave as retinoid antagonists or partial antagonists and/or as inverse agonists. Because of the complex distribution of the different retinoid receptors in various organs of the mammalian body partial agonists and partial antagonists and compounds which have the characteristics of both may lend themselves to particularly useful therapeutic applications and may avoid serious side effects of conventional retinoid drugs.
(§2) A holoreceptor transactivation assay and a ligand binding assay which measure the antagonist/agonist like activity of the compounds of the invention, or their ability to bind to the several retinoid receptor subtypes, respectively, are described in published PCT Application No. WO WO93/11755 (particularly on pages 30-33 and 37-41) published on Jun. 24, 1993, the specification of which is also incorporated herein by reference. A detailed experimental procedure for holoreceptor transactivations has been described by Heyman et al. Cell 68, 397-406, (1992); Allegretto et al. J. Biol. Chem. 268, 26625-26633, and Mangelsdorf et al. The Retinoids: Biology, Chemistry and Medicine, pp 319-349, Raven Press Ltd., New York, which are expressly incorporated herein by reference. The results obtained in this assay are expressed in EC50 numbers, as they are also in the chimeric receptor transactivation assay. The results of ligand binding assay are expressed in Kd numbers. (See Cheng et al. Biochemical Pharmacology Vol. 22 pp 3099-3108, expressly incorporated herein by reference.)
(§3) Table 1 discloses the activity of certain exemplary compounds of the invention in the above-described chimeric receptor transactivation assay, holoreceptor transactivation assay and a ligand binding assays. Particularly, the transactivation data pertaining to RAR receptors were obtained in the chimeric assay, and the data pertaining to transactivation of RXR receptors were obtained in the holoreceptor transactivation assay.

[2] = molecular target: T1, RARα (Homo sapiens, UniProt P10276); test: ligand binding assay, RARα
T1 sequence (P10276 1-462): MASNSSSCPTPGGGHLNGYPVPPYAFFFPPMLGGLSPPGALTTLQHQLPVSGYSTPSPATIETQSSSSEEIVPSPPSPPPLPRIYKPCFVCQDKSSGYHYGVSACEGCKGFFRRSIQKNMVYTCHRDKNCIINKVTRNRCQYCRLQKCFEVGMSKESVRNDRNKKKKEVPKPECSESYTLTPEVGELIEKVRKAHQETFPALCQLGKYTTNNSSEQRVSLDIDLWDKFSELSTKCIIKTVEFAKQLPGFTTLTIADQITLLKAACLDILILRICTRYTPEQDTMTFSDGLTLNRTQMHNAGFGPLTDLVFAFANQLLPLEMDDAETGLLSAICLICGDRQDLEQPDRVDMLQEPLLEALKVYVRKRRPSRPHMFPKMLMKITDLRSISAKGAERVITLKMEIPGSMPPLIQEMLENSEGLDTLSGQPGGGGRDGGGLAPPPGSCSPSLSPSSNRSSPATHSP
From the text: as §1, §2, §3

[3] = molecular target: RXRβ; test: ligand binding assay, RXRβ; conditions: read-out: RXR Bind Ki β
From the text: as §1, §2, §3

[4] = molecular target: T2, RXRα (Homo sapiens, UniProt P19793); test: ligand binding assay, RXRα; conditions: read-out: RXR Bind Ki α
T2 construct: expressed in transfected cells
T2 sequence (P19793 1-462): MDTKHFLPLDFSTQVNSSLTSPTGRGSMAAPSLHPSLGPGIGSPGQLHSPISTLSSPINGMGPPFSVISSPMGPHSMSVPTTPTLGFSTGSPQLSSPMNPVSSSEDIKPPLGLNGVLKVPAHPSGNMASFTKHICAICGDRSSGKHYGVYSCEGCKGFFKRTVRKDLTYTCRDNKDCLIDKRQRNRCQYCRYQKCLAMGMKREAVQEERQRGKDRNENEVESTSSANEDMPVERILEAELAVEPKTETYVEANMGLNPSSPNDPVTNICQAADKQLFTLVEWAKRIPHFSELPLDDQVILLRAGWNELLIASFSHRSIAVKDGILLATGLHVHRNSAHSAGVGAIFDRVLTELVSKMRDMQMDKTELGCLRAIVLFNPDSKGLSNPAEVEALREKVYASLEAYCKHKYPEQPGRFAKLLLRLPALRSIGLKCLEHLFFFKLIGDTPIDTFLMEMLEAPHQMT
From the text: as §1, §2, §3

[5] = molecular target: T3, RXRβ (Mus musculus, UniProt P28704); test: holoreceptor transactivation assay, RXRβ; format: cell-based; conditions: for EC50: holoreceptor transactivation, RXRβ, read-out: RXR Trans. EC50 β; for Emax: relative to 10^-6 M cyclopropyl penta-2,4-dienoic acid reference (RXRs), read-out: % efficacy (RXRβ transactivation)
T3 construct: expressed in transfected cells
T3 sequence (P28704 1-520): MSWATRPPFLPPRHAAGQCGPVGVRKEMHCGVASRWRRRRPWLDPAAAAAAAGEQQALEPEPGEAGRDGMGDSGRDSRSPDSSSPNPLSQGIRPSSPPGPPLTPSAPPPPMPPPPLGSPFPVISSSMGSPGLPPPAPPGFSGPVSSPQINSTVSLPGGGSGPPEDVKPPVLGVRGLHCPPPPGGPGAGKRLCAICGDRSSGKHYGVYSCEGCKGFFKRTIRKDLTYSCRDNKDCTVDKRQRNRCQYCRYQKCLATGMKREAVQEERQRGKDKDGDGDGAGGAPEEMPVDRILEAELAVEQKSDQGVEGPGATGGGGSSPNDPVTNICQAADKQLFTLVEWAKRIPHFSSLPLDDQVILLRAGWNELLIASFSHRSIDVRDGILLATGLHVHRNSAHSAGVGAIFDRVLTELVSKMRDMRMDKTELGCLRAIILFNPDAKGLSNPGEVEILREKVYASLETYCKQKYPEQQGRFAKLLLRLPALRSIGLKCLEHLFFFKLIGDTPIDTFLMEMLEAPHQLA
From the text: as §1, §2, §3

[6] = molecular target: T2, RXRα; test: holoreceptor transactivation assay, RXRα; format: cell-based; conditions: for EC50: holoreceptor transactivation, RXRα, read-out: RXR Trans. EC50 α; for Emax: relative to 10^-6 M cyclopropyl penta-2,4-dienoic acid reference (RXRs), read-out: % efficacy (RXRα transactivation)
From the text: as §1, §2, §3

Row | SMILES | Ki [1] [nM] | Ki ([2]; read-out: RAR Bind. Ki α) [nM] | Ki [3] [nM] | Ki [4] [nM] | EC50 [5] [nM] | EC50 [6] [nM] | Emax [6] [%] | Emax [5] [%] | Ki ([2]; heading: RAR Bind. Ki α) [nM]
1 | CCN(c1ccc(C(=O)O)cc1)c1cc(C)c2c(c1)C(C)(C)CO2 [Compound 27, 4-[Ethyl-(3,3,7-trimethyl-2,3-dihydro-benzofuran-5-yl)-amino]-benzoic acid] | > 100000 | 30000 | > 100000 | 15000 | > 1000 | 1000 | 80 |  | 
2 | CCc1cc(N(CC)c2ccc(C(=O)O)cc2)cc2c1OCC2(C)C [Compound 29, 4-[Ethyl-(3,3-dimethyl-7-ethyl-2,3-dihydro-benzofuran-5-yl)-amino]-benzoic acid] | > 1000 | > 10000 | > 1000 | > 1000 | 800 | 139 | 117 | 70 | 
3 | CC(C)c1cc(N(C)c2ccc(C(=O)O)cc2)cc2c1OCC2(C)C [Compound 30, 4-[Methyl-(3,3-dimethyl-7-isopropyl-2,3-dihydro-benzofuran-5-yl)-amino]-benzoic acid] | > 10000 | 16000 | 4600 | 11000 | > 1000 | 1000 | 75 | 10 | 
4 | CCN(c1ccc(C(=O)O)cc1)c1cc(C(C)C)c2c(c1)C(C)(C)CO2 [Compound 31, 4-[Ethyl-(3,3-dimethyl-7-isopropyl-2,3-dihydro-benzofuran-5-yl)-amino]-benzoic acid] | 4100 | 25000 | 752 | 1.8 | 1000 | 74 | 116 | 75 | 
5 | CCN(c1ccc(C(=O)O)cc1)c1cc(C(C)(C)C)c2c(c1)C(C)(C)CO2 [Compound 32, 4-[Ethyl-(7-t-butyl-3,3-dimethyl-2,3-dihydro-benzofuran-5-yl)-amino]-benzoic acid] | 672 | > 1000 | 342 | 222 | 1000 | 98 | 103 | 50 | 
6 | CCc1cc(N(c2ccc(C(=O)O)cc2)C(C)C)cc2c1OCC2(C)C [Compound 42, 4-[Isopropyl-(3,3-dimethyl-7-ethyl-2,3-dihydro-benzofuran-5-yl)-amino]-benzoic acid] | > 1000 | > 10000 | > 1000 | > 1000 | > 1000 | 203 | 100 | 30 | 
7 | CC(C)c1cc(N(c2ccc(C(=O)O)cc2)C(C)C)cc2c1OCC2(C)C [Compound 43] |  | > 10000 |  | > 1000 | 58 | 16 | 66 | 58 | 
8 | CC(C)N(c1ccc(C(=O)O)cc1)c1cc(C(C)(C)C)c2c(c1)C(C)(C)CO2 [Compound 44, 4-[Isopropyl-(7-t-butyl-3,3-dimethyl-2,3-dihydro-benzofuran-5-yl)-amino]-benzoic acid] | 344 | > 1000 | 215 | 11 | 171 | 22 | 73 | 33 | 
9 | Cc1c(N(c2ccc(C(=O)O)cc2)C(C)C)cc2c(c1C(C)(C)C)OCC2(C)C [Compound 73, 4-[Isopropyl-(7-t-butyl-3,3,6-trimethyl-2,3-dihydro-benzofuran-5-yl)-amino]-benzoic acid] | 236 | 12000 | 178 | 71 | 71 | 10 | 92 | 92 | 
10 | CCN(c1ccc(C(=O)O)cc1)c1ccc2c(c1)C(C)(C)OC2(C)C [Compound 83, 4-[Ethyl-(1,1,3,3-tetramethyl-1,3-dihydro-isobenzofuran-5-yl)-amino]-benzoic acid] | > 1000 | > 10000 | > 1000 | 1000 | 1000 | 39 | 107 | 100 | 
11 | CCCN(c1ccc(C(=O)O)cc1)c1ccc2c(c1)C(C)(C)OC2(C)C [Compound 84, 4-[n-Propyl-(1,1,3,3-tetramethyl-1,3-dihydro-isobenzofuran-5-yl)-amino]-benzoic acid] | > 1000 |  | 2000 | 1500 | 1000 | 40 | 121 | 184 | > 10000
12 | CCCCN(c1ccc(C(=O)O)cc1)c1ccc2c(c1)C(C)(C)OC2(C)C [Compound 85, 4-[n-Butyl-(1,1,3,3-tetramethyl-1,3-dihydro-isobenzofuran-5-yl)-amino]-benzoic acid] | > 1000 | > 10000 | > 1000 | > 1000 | 1000 | 161 | 122 | 60 | 
13 | CC(C)N(c1ccc(C(=O)O)cc1)c1ccc2c(c1)C(C)(C)OC2(C)C [Compound 87, 4-[i-Propyl-(1,1,3,3-tetramethyl-1,3-dihydro-isobenzofuran-5-yl)-amino]-benzoic acid] | 2100 | > 10000 | 2700 | 650 | 1000 | 57 | 115 | 65 | 
